Laboratory results: ChEMBL document CHEMBL1201862, “PubChem BioAssay data set” (2004)
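The compound was tested at five concentrations on cells cultured in 96-well plates, with a 48-hour exposure period. The concentration for 50% growth inhibition is given as GI50.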 Active and inactive are the calls of the source. Rule as the data show it: active = GI50 up to about 1.1 µM and inactive = higher.

Key:
Assay in all cases: NCI anticancer screen, dose series, 48 h
[1] = tested on: 786-0
[2] = tested on: OVCAR-5
[3] = tested on: RXF 393
[4] = tested on: SN12C
[5] = tested on: COLO 205
[6] = tested on: MDA-MB-435
[7] = tested on: SW-620
[8] = tested on: OVCAR-3
[9] = tested on: TK-10
[10] = tested on: UO-31
[11] = tested on: M14
[12] = tested on: SF-295
[13] = tested on: K562
[14] = tested on: SR
[15] = tested on: NCI/ADR-RES
[16] = tested on: HCT-116
[17] = tested on: SNB-19
[18] = tested on: CAKI-1
[19] = tested on: EKVX
[20] = tested on: SF-539
[21] = tested on: SK-MEL-5
[22] = tested on: UACC-257
[23] = tested on: MDA-N
[24] = tested on: ACHN
[25] = tested on: MDA-MB-231
[26] = tested on: MOLT-4
[27] = tested on: NCI-H226
[28] = tested on: SK-MEL-28
[29] = tested on: HT-29
[30] = tested on: SK-OV-3
[31] = tested on: SNB-75
[32] = tested on: LOX IMVI
[33] = tested on: CCRF-CEM
[34] = tested on: SF-268
[35] = tested on: IGROV-1
[36] = tested on: HCC 2998
[37] = tested on: HOP-62
[38] = tested on: RPMI-8226
[39] = tested on: HOP-92
[40] = tested on: PC-3
[41] = tested on: OVCAR-8
[42] = tested on: HL-60
[43] = tested on: A549
[44] = tested on: Malme-3M
[45] = tested on: KM12
[46] = tested on: MCF7
[47] = tested on: NCI-H23
[48] = tested on: UACC-62
[49] = tested on: Hs-578T
[50] = tested on: NCI-H522
[51] = tested on: DU-145
[52] = tested on: U-251
[53] = tested on: T47D
[54] = tested on: HCT-15
[55] = tested on: OVCAR-4
[56] = tested on: NCI-H460
[57] = tested on: SK-MEL-2

Q: Which GI50 [1] does the source give for CCC(=O)ONC(=O)Cn1ccc([N+](=O)[O-])n1 here?
A: > 100 µM (inactive)

Q: What about the GI50 [2] of the same compound?
A: > 100 µM (inactive)

Q: And the GI50 [3]?
A: > 100 µM (inactive)

Q: And the GI50 [4]?
A: > 100 µM (inactive)

Q: What about the GI50 [5] of the same compound?
A: > 100 µM (inactive)

Q: And the GI50 [6]?
A: > 100 µM (inactive)

Q: What about the GI50 [7] of the same compound?
A: > 100 µM (inactive)

Q: What about the GI50 [8] of the same compound?
A: > 100 µM (inactive)

Q: And the GI50 [9]?
A: > 100 µM (inactive)

Q: What about the GI50 [10] of the same compound?
A: > 100 µM (inactive)

Q: And the GI50 [11]?
A: > 100 µM (inactive)

Q: And the GI50 [12]?
A: > 100 µM (inactive)

Q: What about the GI50 [13] of the same compound?
A: > 100 µM (inactive)

Q: And the GI50 [14]?
A: > 100 µM (inactive)

Q: And the GI50 [15]?
A: > 100 µM (inactive)

Q: And the GI50 [16]?
A: > 100 µM (inactive)

Q: And the GI50 [17]?
A: > 100 µM (inactive)

Q: And the GI50 [18]?
A: > 100 µM (inactive)

Q: And the GI50 [19]?
A: > 100 µM (inactive)

Q: And the GI50 [20]?
A: > 100 µM (inactive)

Q: What about the GI50 [21] of the same compound?
A: > 100 µM (inactive)

Q: And the GI50 [22]?
A: > 100 µM (inactive)

Q: And the GI50 [23]?
A: > 100 µM (inactive)

Q: What about the GI50 [24] of the same compound?
A: > 100 µM (inactive)

Q: What about the GI50 [25] of the same compound?
A: > 100 µM (inactive)

Q: What about the GI50 [26] of the same compound?
A: > 100 µM (inactive)

Q: What about the GI50 [27] of the same compound?
A: > 100 µM (inactive)

Q: And the GI50 [28]?
A: > 100 µM (inactive)

Q: And the GI50 [29]?
A: > 100 µM (inactive)

Q: What about the GI50 [30] of the same compound?
A: > 100 µM (inactive)

Q: What about the GI50 [31] of the same compound?
A: > 100 µM (inactive)

Q: What about the GI50 [32] of the same compound?
A: > 100 µM (inactive)

Q: What about the GI50 [33] of the same compound?
A: > 100 µM (inactive)

Q: And the GI50 [34]?
A: > 100 µM (inactive)

Q: What about the GI50 [35] of the same compound?
A: > 100 µM (inactive)

Q: And the GI50 [36]?
A: > 100 µM (inactive)

Q: And the GI50 [37]?
A: > 100 µM (inactive)

Q: And the GI50 [38]?
A: > 100 µM (inactive)

Q: And the GI50 [39]?
A: > 100 µM (inactive)

Q: And the GI50 [40]?
A: > 100 µM (inactive)

Q: What about the GI50 [41] of the same compound?
A: > 100 µM (inactive)

Q: What about the GI50 [42] of the same compound?
A: > 100 µM (inactive)

Q: And the GI50 [43]?
A: > 100 µM (inactive)

Q: What about the GI50 [44] of the same compound?
A: > 100 µM (inactive)

Q: What about the GI50 [45] of the same compound?
A: > 100 µM (inactive)

Q: And the GI50 [46]?
A: > 100 µM (inactive)

Q: And the GI50 [47]?
A: > 100 µM (inactive)

Q: And the GI50 [48]?
A: > 100 µM (inactive)

Q: And the GI50 [49]?
A: > 100 µM (inactive)

Q: And the GI50 [50]?
A: > 100 µM (inactive)

Q: What about the GI50 [51] of the same compound?
A: > 100 µM (inactive)

Q: Which GI50 [1] does the source give for Oc1ccc(-c2csc(N/N=C3\NC/C(=C/c4ccc5c(c4)OCO5)S3)n2)cc1O here?
A: 30.6 µM (inactive)

Q: And the GI50 [2]?
A: 47.2 µM (inactive)

Q: And the GI50 [4]?
A: 33.5 µM (inactive)

Q: What about the GI50 [5] of the same compound?
A: 29.1 µM (inactive)

Q: And the GI50 [6]?
A: 3.21 µM (inactive)

Q: What about the GI50 [7] of the same compound?
A: 35.4 µM (inactive)

Q: What about the GI50 [9] of the same compound?
A: 21.7 µM (inactive)

Q: What about the GI50 [10] of the same compound?
A: 11.2 µM (inactive)

Q: What about the GI50 [11] of the same compound?
A: 11.2 µM (inactive)

Q: What about the GI50 [12] of the same compound?
A: 43.2 µM (inactive)

Q: And the GI50 [52]?
A: 22.1 µM (inactive)

Q: What about the GI50 [15] of the same compound?
A: 42 µM (inactive)

Q: What about the GI50 [53] of the same compound?
A: 31.5 µM (inactive)

Q: What about the GI50 [16] of the same compound?
A: 29.3 µM (inactive)

Q: What about the GI50 [17] of the same compound?
A: 14.4 µM (inactive)

Q: And the GI50 [18]?
A: 32.4 µM (inactive)

Q: And the GI50 [19]?
A: 26.4 µM (inactive)

Q: And the GI50 [20]?
A: 3.18 µM (inactive)

Q: And the GI50 [21]?
A: 9.82 µM (inactive)

Q: What about the GI50 [22] of the same compound?
A: 14.6 µM (inactive)

Q: What about the GI50 [23] of the same compound?
A: 3.4 µM (inactive)

Q: What about the GI50 [24] of the same compound?
A: 17 µM (inactive)

Q: What about the GI50 [25] of the same compound?
A: 55.8 µM (inactive)

Q: And the GI50 [26]?
A: 5.45 µM (inactive)

Q: And the GI50 [27]?
A: 43.5 µM (inactive)

Q: What about the GI50 [28] of the same compound?
A: 11.9 µM (inactive)

Q: And the GI50 [29]?
A: 38.5 µM (inactive)

Q: And the GI50 [30]?
A: > 100 µM (inactive)

Q: And the GI50 [31]?
A: 1.73 µM (inactive)

Q: What about the GI50 [32] of the same compound?
A: 11.6 µM (inactive)

Q: And the GI50 [35]?
A: 20.6 µM (inactive)

Q: What about the GI50 [36] of the same compound?
A: 40.6 µM (inactive)

Q: And the GI50 [37]?
A: 22.1 µM (inactive)

Q: And the GI50 [54]?
A: 19.1 µM

Q: What about the GI50 [39] of the same compound?
A: 38.5 µM (inactive)

Q: And the GI50 [40]?
A: 26.4 µM (inactive)

Q: And the GI50 [41]?
A: 29.2 µM (inactive)

Q: And the GI50 [42]?
A: > 10 µM (inactive)

Q: And the GI50 [43]?
A: 45.5 µM (inactive)

Q: And the GI50 [45]?
A: 17.3 µM (inactive)

Q: And the GI50 [55]?
A: 32.9 µM (inactive)

Q: What about the GI50 [46] of the same compound?
A: 6.43 µM (inactive)

Q: And the GI50 [47]?
A: 9.95 µM (inactive)

Q: What about the GI50 [56] of the same compound?
A: 31 µM (inactive)

Q: And the GI50 [57]?
A: 10 µM (inactive)

Q: What about the GI50 [51] of the same compound?
A: 26.7 µM (inactive)
